Test results published in patent US20070015743A1, “Quinazoline derivatives as antitumor agents” (priority 2003, published 2007).

Tests used:
erbB2 = biological target: T1, erbB2 (Homo sapiens, UniProt P04626); assay: Clone 24 phospho-erbB2 cell assay, Test (c); type: cell-based; conditions: MCF7 derived cell line overexpressing erbB2 (Clone 24 cells); read-out: IC50 (μM) Test (c): Inhibition of erbB2 tyrosine kinase protein phosphorylation
T1 construct: a cell line that overexpresses full length wild type erbB2 protein; expressed in transfected cells; host or cells: MCF7 (breast carcinoma) derived 'Clone 24' cells
T1 sequence (P04626 23-1255): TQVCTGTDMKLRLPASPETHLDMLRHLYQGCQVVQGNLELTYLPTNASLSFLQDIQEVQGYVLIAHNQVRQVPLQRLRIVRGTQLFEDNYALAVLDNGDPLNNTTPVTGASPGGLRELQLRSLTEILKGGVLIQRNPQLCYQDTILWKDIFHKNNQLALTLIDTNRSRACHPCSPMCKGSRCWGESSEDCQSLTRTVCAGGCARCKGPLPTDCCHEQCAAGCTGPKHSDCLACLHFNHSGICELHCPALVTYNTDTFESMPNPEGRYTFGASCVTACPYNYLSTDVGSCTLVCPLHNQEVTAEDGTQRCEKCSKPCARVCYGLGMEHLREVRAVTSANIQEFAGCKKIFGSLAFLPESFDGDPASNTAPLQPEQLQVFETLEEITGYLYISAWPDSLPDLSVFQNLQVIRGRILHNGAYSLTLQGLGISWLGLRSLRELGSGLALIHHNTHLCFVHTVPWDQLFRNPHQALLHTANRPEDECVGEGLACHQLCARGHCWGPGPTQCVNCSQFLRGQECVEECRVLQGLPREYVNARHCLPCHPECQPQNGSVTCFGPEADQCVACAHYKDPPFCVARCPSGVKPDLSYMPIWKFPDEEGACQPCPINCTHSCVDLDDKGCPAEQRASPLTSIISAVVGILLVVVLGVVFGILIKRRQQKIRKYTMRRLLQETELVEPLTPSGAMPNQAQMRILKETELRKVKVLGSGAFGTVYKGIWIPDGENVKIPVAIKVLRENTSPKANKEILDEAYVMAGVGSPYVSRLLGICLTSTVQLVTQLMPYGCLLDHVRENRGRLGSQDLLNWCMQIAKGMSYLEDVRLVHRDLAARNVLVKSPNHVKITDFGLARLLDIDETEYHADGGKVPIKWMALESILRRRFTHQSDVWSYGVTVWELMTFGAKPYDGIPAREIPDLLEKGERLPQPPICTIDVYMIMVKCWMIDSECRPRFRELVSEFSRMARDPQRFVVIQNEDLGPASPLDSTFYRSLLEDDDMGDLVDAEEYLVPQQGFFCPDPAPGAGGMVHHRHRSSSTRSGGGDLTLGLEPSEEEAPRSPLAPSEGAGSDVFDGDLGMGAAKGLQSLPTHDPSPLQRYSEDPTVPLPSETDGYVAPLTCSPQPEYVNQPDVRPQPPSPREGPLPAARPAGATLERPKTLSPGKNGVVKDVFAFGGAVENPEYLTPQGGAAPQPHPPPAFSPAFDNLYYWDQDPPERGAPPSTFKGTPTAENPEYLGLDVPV
Method: This immunofluorescence end point assay measures the ability of a test compound to inhibit the phosphorylation of erbB2 in a MCF7 (breast carcinoma) derived cell line which was generated by transfecting MCF7 cells with the full length erbB2 gene using standard methods to give a cell line that overexpresses full length wild type erbB2 protein (hereinafter ‘Clone 24’ cells).
Clone 24 cells were cultured in Growth Medium (phenol red free Dulbecco's modified Eagle's medium (DMEM) containing 10% foetal bovine serum, 2 mM glutamine and 1.2 mg/ml G418) in a 7.5% CO2 air incubator at 37° C. Cells were harvested from T75 stock flasks by washing once in PBS (phosphate buffered saline, pH7.4, Gibco No. 10010-015) and harvested using 2 mls of Trypsin (1.25 mg/ml)/ethylaminediaminetetraacetic acid (EDTA) (0.8 mg/ml) solution. The cells were resuspended in Growth Medium. Cell density was measured using a haemocytometer and viability was calculated using Trypan Blue solution before being further diluted in Growth Medium and seeded at a density of 1×10^4 cells per well (in 100 ul) into clear bottomed 96 well plates (Packard, No. 6005182).
3 days later, Growth Medium was removed from the wells and replaced with 100 ul Assay Medium (phenol red free DMEM, 2 mM glutamine, 1.2 mg/ml G418) either with or without erbB inhibitor compound. Plates were returned to the incubator for 4 hrs and then 20 μl of 20% formaldehyde solution in PBS was added to each well and the plate was left at room temperature for 30 minutes. This fixative solution was removed with a multichannel pipette, 100 μl of PBS was added to each well and then removed with a multichannel pipette and then 50 μl PBS was added to each well. Plates were then sealed and stored for up to 2 weeks at 4° C.
Immunostaining was performed at room temperature. […]
The Fluorescence signal is each well was measured using an Acumen Explorer Instrument (Acumen Bioscience Ltd.), a plate reader that can be used to rapidly quantitate features of images generated by laser-scanning. […]

erbB2 tyrosine kinase = biological target: T2, erbB2 tyrosine kinase (Homo sapiens, UniProt P04626); assay: Protein tyrosine kinase phosphorylation assay, Test (a), erbB2; type: biochemical; conditions: read-out: IC50 (μM) Test (a): Inhibition of erbB2 tyrosine kinase protein phosphorylation
T2 construct: Recombinant intracellular fragments of EGFR, erbB2 and erbB4; made in house; host or cells: baculovirus/Sf21 insect cells (cleared lysate used)
T2 sequence (P04626 676-1255 limits assumed): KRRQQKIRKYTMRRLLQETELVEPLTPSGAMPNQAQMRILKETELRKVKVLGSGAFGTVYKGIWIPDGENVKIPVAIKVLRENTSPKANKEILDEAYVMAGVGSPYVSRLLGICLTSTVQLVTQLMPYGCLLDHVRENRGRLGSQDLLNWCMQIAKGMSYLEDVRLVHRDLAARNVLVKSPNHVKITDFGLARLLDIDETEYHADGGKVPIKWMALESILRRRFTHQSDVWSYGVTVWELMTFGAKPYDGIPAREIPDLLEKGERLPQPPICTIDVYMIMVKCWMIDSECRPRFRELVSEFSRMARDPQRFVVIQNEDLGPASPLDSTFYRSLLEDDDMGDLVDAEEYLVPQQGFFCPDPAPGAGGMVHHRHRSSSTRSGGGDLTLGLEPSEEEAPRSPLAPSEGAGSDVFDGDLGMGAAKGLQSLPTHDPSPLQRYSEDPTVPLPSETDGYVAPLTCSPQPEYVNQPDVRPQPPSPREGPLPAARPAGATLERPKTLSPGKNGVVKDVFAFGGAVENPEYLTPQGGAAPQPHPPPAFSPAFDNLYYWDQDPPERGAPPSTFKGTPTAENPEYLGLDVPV
Method: (§1) Recombinant intracellular fragments of EGFR, erbB2 and erbB4 (accession numbers X00588, X03363 and L07868 respectively) were cloned and expressed in the baculovirus/Sf21 system. Lysates were prepared from these cells by treatment with ice-cold lysis buffer (20 mM N-2-hydroxyethylpiperizine-N′-2-ethanesulfonic acid (HEPES) pH7.5, 150 mM NaCl, 10% glycerol, 1% Triton X-100, 1.5 mM MgCl2, 1 mM ethylene glycol-bis(β-aminoethyl ether)N′,N′,N′,N′-tetraacetic acid (EGTA), plus protease inhibitors and then cleared by centrifugation.
Constitutive kinase activity of these recombinant proteins was determined by their ability to phosphorylate a synthetic peptide (made up of a random co-polymer of Glutamic Acid, Alanine and Tyrosine in the ratio of 6:3:1). Specifically, Maxisorb™ 96-well immunoplates were coated with synthetic peptide (0.2 μg of peptide in a […] phosphate buffered saline (PBS) solution and incubated at 4° C. overnight). Plates were washed in 50 mM HEPES pH 7.4 at room temperature to remove any excess unbound synthetic peptide. EGFR or erbB2 activities were assessed by incubation in peptide coated plates for 20 minutes at room temperature in 100 mM HEPES pH 7.4 at room temperature, adenosine trisphosphate (ATP) at Km concentration for the respective enzyme, 10 mM MnCl2, 0.1 mM Na3VO4, 0.2 mM DL-dithiothreitol (DTT), 0.1% Triton X-100 with test compound in DMSO (final concentration of 2.5%). […]
The immobilised phospho-peptide product of the reaction was detected by immunological methods. […] After further washing, HRP activity in each well of the plate was measured colorimetrically using 22′-Azino-di-[3-ethylbenzthiazoline sulfonate (6)]diammonium salt crystals (ABTS™ from Roche) as a substrate. Quantification of colour development and thus enzyme activity was achieved by the measurement of absorbance at 405 nm on a Molecular Devices ThermoMax microplate reader. Kinase inhibition for a given compound was expressed as an IC50 value. […] The range of phosphorylation was calculated from the positive (vehicle plus ATP) and negative (vehicle minus ATP) control values.

EGFR tyrosine kinase = biological target: T3, EGFR tyrosine kinase (Homo sapiens, UniProt P00533); assay: Protein tyrosine kinase phosphorylation assay, Test (a), EGFR; type: biochemical; conditions: read-out: IC50 (μM) Test (a): Inhibition of EGFR tyrosine kinase protein phosphorylation
T3 construct: Recombinant intracellular fragments of EGFR, erbB2 and erbB4; made in house; host or cells: baculovirus/Sf21 insect cells (cleared lysate used)
T3 sequence (P00533 669-1210 limits assumed): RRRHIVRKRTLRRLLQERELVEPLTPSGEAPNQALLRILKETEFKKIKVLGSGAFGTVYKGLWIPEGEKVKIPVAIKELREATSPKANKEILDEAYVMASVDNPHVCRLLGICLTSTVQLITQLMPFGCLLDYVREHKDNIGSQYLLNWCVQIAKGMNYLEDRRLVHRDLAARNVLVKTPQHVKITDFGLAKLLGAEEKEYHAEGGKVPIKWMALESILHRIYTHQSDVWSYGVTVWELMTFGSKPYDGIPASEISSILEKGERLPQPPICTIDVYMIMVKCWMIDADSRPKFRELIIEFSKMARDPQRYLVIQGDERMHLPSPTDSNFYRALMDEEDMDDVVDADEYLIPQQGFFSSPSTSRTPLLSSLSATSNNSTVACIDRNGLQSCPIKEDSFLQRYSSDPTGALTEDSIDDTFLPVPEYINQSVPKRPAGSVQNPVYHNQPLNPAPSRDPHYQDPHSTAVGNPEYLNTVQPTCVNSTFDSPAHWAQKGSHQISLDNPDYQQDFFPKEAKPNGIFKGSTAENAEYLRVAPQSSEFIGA
Method: This test measures the ability of a test compound to inhibit the phosphorylation of a tyrosine containing polypeptide substrate by EGFR tyrosine kinase enzyme.
as §1
Constitutive kinase activity of these recombinant proteins was determined by their ability to phosphorylate a synthetic peptide (made up of a random co-polymer of Glutamic Acid, Alanine and Tyrosine in the ratio of 6:3:1). […]
The immobilised phospho-peptide product of the reaction was detected by immunological methods. […] After further washing, HRP activity in each well of the plate was measured colorimetrically using 22′-Azino-di-[3-ethylbenzthiazoline sulfonate (6)]diammonium salt crystals (ABTS™ from Roche) as a substrate. Quantification of colour development and thus enzyme activity was achieved by the measurement of absorbance at 405 nm on a Molecular Devices ThermoMax microplate reader. […]

SMILES | IC50 (erbB2) | IC50 (erbB2 tyrosine kinase) | IC50 (EGFR tyrosine kinase)
CN(C)CC(=O)N1CCC[C@@H]1COc1cccc2ncnc(Nc3ccc(OCc4cncs4)c(Cl)c3)c12 [Example 25, N-[3-Chloro-4-(1,3-thiazol-5-ylmethoxy)phenyl]-5-({(2R)-1-[(dimethylamino)acetyl]pyrrolidin-2-yl}methoxy)quinazolin-4-amine] | 1.4 µM | 0.048 µM | –
Cc1cccc(COc2ccc(Nc3ncnc4cccc(OC[C@@H]5CCCN5C(=O)CO)c34)cc2Cl)n1 [Example 40] | 2.4 µM | 0.63 µM | 33 µM
O=C(CO)N1CCC[C@H](COc2cccc3ncnc(Nc4ccc(OCc5cscn5)c(Cl)c4)c23)C1 [Example 78, 2-((3S)-3-{[(4-{[3-chloro-4-(1,3-thiazol-4-ylmethoxy)phenyl]amino}quinazolin-5-yl)oxy]methyl}piperidin-1-yl)-2-oxoethanol] | 0.19 µM | 0.034 µM | 2.4 µM
